Results from patent US20230365602A1, “COMPOUND FOR USE IN THE TREATMENT OF PROTOZOAL DISEASES AND PROCESS FOR PRODUCTION OF SAID COMPOUND” (QUADREL S.R.L., priority 2020, published 2023).
“Also recorded” adds a separate entry of the source. Like-named read-outs stand apart in the source and are kept apart here.

Key:
[1] = tested on: L. infantum (MHOM/MA/67/ITMAP-263) intracellular amastigotes; assay: Anti-parasitic activity against L. infantum intracellular amastigotes (infection with axenic amastigotes luciferase positive); assay type: cell-based; conditions: Table 1
[2] = target: CYP3A4 (Homo sapiens, UniProt P08684); assay: Early toxicity: CYP3A4 inhibition; assay type: in vitro ADME; conditions: Table 4a
Sequence of CYP3A4 (P08684 whole entry): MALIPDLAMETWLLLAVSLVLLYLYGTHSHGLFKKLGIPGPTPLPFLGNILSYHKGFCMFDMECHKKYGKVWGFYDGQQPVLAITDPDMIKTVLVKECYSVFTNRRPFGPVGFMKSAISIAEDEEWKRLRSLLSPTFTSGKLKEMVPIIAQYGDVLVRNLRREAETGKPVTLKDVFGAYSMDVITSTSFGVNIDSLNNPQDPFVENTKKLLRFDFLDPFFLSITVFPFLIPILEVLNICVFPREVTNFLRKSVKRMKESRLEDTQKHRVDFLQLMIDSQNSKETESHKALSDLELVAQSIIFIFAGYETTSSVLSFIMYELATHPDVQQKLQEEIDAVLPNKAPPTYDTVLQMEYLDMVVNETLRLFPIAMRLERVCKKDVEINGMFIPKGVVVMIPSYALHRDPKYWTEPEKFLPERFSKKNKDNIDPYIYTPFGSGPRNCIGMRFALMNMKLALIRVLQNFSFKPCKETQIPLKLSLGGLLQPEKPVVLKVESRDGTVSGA

[3] = target: CYP2C19 (Homo sapiens, UniProt P33261); assay: Early toxicity: CYP2C19 inhibition; assay type: in vitro ADME; conditions: Table 4a
Sequence of CYP2C19 (P33261 whole entry): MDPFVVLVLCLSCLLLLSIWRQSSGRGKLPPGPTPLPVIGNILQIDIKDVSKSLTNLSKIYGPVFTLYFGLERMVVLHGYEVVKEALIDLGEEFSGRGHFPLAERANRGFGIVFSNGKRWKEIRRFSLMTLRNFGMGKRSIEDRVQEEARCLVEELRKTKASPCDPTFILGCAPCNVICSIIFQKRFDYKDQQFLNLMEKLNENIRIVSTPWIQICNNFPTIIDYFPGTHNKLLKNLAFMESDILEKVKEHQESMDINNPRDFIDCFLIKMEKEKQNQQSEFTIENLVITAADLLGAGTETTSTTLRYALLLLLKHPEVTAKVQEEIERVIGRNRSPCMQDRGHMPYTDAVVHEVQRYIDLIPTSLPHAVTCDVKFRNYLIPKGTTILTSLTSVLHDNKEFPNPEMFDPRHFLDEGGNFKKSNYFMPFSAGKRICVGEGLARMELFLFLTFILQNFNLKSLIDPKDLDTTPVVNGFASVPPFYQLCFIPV

[4] = tested on: L. infantum axenic amastigotes expressing luciferase; assay: In vivo model of infection with L. infantum axenic amastigotes expressing luciferase; conditions: ten consecutive oral treatments with 10 mg/kg, 2 weeks after last treatment
Procedure: FIG. 4 illustrates the in vivo activity of compounds 18 and 19 in a model of infection with L. infantum axenic amastigotes expressing luciferase (10 consecutive treatments with 10 mg/kg of each compound, evaluated by limiting dilution assay 2 weeks after the last treatment).
In vivo activity of compounds 18 and 19 (ten consecutive oral treatments with 10 mg/kg of each compound, followed by a break of 2 weeks after last treatment), was studied in a model of infection with axenic amastigotes expressing luciferase, essentially as described in (Mendes Costa D. et al, J. Sci Rep. 2019 Dec. 12; 9(1):18989; Tavares J. et al., Methods Mol Biol. 2019; 1971:289-301). (FIG. 4).

[5] = tested on: mitochondria; assay: Early toxicity: mitochondrial toxicity; assay type: cell-based
[6] = target: hERG channel (Homo sapiens, UniProt Q12809); assay: Early toxicity: hERG inhibition
Sequence of hERG channel (Q12809 whole entry): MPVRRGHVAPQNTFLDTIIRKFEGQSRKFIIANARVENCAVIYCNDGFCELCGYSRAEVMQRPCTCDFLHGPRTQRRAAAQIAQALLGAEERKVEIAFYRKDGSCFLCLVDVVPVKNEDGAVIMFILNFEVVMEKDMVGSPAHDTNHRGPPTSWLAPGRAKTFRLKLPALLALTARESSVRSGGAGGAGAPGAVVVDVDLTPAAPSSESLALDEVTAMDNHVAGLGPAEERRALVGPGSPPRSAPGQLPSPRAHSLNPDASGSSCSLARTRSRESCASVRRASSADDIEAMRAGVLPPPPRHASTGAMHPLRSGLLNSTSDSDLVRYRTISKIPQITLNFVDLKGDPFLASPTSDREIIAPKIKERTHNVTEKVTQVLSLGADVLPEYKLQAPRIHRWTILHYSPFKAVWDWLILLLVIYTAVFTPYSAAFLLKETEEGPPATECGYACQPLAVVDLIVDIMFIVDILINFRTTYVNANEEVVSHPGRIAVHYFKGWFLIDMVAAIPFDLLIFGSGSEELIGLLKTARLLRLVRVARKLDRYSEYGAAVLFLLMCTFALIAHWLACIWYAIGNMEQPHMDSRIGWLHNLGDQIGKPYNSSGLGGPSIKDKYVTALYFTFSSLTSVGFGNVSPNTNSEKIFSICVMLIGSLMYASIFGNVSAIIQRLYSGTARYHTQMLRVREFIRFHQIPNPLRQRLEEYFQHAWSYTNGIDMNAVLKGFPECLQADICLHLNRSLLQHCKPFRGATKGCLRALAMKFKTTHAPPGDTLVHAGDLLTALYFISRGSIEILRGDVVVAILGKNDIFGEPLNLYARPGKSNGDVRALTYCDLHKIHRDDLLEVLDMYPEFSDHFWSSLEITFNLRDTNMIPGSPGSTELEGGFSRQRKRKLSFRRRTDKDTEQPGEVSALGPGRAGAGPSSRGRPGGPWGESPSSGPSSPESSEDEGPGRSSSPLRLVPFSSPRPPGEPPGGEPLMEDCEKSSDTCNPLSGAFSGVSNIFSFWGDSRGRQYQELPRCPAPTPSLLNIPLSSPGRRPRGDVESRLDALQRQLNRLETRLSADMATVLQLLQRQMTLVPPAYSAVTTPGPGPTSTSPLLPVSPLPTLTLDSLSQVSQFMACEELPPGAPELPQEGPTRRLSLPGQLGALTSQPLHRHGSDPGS

[7] = target: CYP2C9 (Homo sapiens, UniProt P11712); assay: Early toxicity: CYP2C9 inhibition; assay type: in vitro ADME; conditions: human, mean ± SD, Table 4a
Sequence of CYP2C9 (P11712 whole entry): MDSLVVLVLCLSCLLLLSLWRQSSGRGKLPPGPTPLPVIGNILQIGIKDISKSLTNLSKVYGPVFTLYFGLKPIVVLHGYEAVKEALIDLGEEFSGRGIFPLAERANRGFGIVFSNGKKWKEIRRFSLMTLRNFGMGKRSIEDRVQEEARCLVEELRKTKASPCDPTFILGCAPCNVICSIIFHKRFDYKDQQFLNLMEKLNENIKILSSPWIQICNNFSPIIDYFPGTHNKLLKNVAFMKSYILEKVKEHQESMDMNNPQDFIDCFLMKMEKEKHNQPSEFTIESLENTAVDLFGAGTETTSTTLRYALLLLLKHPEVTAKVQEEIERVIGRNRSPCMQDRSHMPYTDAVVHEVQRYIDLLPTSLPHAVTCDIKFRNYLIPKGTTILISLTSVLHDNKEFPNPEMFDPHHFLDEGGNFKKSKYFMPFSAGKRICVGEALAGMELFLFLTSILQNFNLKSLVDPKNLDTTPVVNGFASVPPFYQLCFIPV

[8] = target: CYP2D6 (Homo sapiens, UniProt P10635); assay: Early toxicity: CYP2D6 inhibition; assay type: in vitro ADME; conditions: Table 4a
Sequence of CYP2D6 (P10635 whole entry): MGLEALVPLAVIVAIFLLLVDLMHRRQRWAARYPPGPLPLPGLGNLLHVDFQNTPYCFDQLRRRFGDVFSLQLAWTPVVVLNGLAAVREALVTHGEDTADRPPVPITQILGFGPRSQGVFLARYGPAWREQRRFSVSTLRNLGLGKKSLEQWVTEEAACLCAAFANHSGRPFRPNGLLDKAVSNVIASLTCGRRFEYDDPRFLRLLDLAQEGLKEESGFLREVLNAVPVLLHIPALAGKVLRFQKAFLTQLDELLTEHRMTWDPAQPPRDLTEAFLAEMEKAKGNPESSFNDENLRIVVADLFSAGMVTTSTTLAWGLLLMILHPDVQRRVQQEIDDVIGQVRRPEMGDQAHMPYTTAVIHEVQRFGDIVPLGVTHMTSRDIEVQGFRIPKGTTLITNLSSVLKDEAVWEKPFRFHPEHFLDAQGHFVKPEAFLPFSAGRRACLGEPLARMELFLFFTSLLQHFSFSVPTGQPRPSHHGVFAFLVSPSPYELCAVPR

[9] = tested on: T. b. brucei L427 WT Blood-Stream Form; assay: Anti-parasitic activity against T. b. brucei blood-stream form (resazurin 72 h assay); assay type: cell-based; conditions: Table 2
[10] = Snapshot pharmacokinetics in plasma after oral gavage; assay type: in vivo, mice; conditions: mouse, plasma, po, healthy BALB/c mice, 20 mg/kg gavage, Table 13
Procedure: Pharmacology of 5-cyclopentadecylpentyl (2-(trimethylammonio)ethyl) phosphate (19) in mice.
Blood samples were collected from the tail vein at 0, 0.5, 0.75, 1, 3, 24 and 72 hours into heparinized tubes. Moreover, biodistribution of the molecule, 72h after administration, was determined in several organs of the treated mice, namely brain, liver, spleen, kidney, heart and bone marrow. […] J Chromatogr B, 865: 55-62) by liquid chromatography mass spectrometry (LC-MS/MS).

[11] = target: T1, CYP1A2 (Homo sapiens, UniProt P05177); assay: Early toxicity: CYP1A2 inhibition; assay type: in vitro ADME; conditions: human, mean ± SD, Table 4a
T1 sequence (P05177 1-516): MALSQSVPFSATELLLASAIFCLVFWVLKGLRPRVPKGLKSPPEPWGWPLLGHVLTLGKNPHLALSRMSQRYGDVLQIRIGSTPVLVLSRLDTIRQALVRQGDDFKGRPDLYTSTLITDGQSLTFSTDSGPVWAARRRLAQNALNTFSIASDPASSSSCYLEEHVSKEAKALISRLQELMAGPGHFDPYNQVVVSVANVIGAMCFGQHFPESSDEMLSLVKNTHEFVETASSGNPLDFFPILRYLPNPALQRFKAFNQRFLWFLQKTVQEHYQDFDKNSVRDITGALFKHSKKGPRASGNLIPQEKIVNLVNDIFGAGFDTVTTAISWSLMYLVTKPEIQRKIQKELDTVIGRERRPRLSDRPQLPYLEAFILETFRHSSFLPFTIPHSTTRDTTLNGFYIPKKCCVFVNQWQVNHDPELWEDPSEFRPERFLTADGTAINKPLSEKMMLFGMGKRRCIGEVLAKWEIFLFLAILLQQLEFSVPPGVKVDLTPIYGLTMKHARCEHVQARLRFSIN

[12] = Toxicity MTT assay in PMA-differentiated THP-1 cells; assay type: cell-based, human; conditions: human, PMA-differentiated THP-1 cells (macrophages)
Source text: (§1) The in vitro antiparasitic activity against L. infantum (MHOM/MA/67/ITMAP-263) and the toxicity against THP-1 macrophages is presented in Table 1.

[13] = tested on: PMA-differentiated THP-1 cells; assay: as above; assay type: cell-based, human; conditions: Table 2; read-out: Toxicity CC50 ± SD or NOAEL
Source text: as §1

[14] = tested on: A549; assay: Early toxicity: A549 cell growth; assay type: cell-based; conditions: 10 μM; 100% = not cytotoxic, 0% = cytostatic, −100% = cytotoxic

In the case of C[N+](C)(C)CCOP(=O)([O-])OCCCCC1CCCCCCCCCCCCCC1 [Compound 18, 4-cyclopentadecylbutyl (2-(trimethylammonio)ethyl) phosphate], the inhibition at 10 µM ([1]; Leishmania infantum, 10 μM, read-out: Single Dose Assay 10 μM Mean Inhibitory Activity (%) ± SD) is reported as 97 ± 2%, the IC50 ([1]; Leishmania infantum, read-out: Dose Response Curves IC50 ± SD) is reported as 0.6 ± 0.3 µM and the “Selectivity Index CC50/IC50 or NOAEL/IC50” value ([1]; THP-1 toxicity / L. infantum IC50) is reported as greater than 166. For the same compound, the “CYP3A4 interaction” value [2] was “interact”, the inhibition at 10 µM ([2]; human, 10 μM, mean ± SD, read-out: % inhibition CYP3A4) was 38.1 ± 2.67% and the “CYP2C19 interaction / inhibition” value ([3]; 10 μM) was “interact; also recorded: significant inhibition”. The inhibition at 10 µM ([3]; human, mean ± SD) was 33.3 ± 4.67%, the “parasitic burden in the spleen, liver or bone marrow” value [4] was “not effective” and the “% mitochondrial toxicity” value ([5]; 10 μM, 100% mitotoxic, 0% not mitotoxic) was 109.49 ± 9.62%. For the same compound, the “mitochondrial toxicity” value ([5]; Table 4b) was “exhibit mitochondrial toxicity”, the “Flag for Interference, hERG” value ([6]; Table 4b) was “(no)” and the inhibition at 10 µM ([6]; human) was 34.8 ± 14%. For the same compound, the inhibition at 10 µM [7] was 5.66 ± 5.52%, the “CYP2D6 interaction / inhibition” value ([8]; 10 μM) was “interact; also recorded: significant inhibition” and the inhibition at 10 µM ([8]; human, mean ± SD) was 64.5 ± 2.92%. The “activity against T. b. brucei blood-stream form” value [9] was “unexpectedly high activity in the low micromolar range”, the inhibition at 10 µM ([9]; Trypanosoma brucei, 10 μM, read-out: Single Dose Assay 10 μM Mean Inhibitory Activity (%) ± SD) was 91 ± 12% and the IC50 ([9]; Trypanosoma brucei, resazurin 72 h, read-out: Dose Response Curves IC50 ± SD) was 7.44 ± 0.65 µM. The “Selectivity Index CC50/IC50 or NOAEL/IC50” value ([9]; toxicity / T. b. brucei IC50) was greater than 13, the AUC(0-inf) ([10]; read-out: AUC (0-∞)) was 262 µg·h/mL and the AUC(0-inf) ([10]; read-out: AUC (0-∞) (μM h/mL)) was 586 µM·h. The Cmax ([10]; read-out: Cmax) was 20.3 µM, the Cmax ([10]; read-out: Cmax (μg/mL)) was 9.1 µg/mL and the Tmax ([10]; read-out: tmax) was 5 h. It also gave a half-life ([10]; read-out: t½ (converted)) of 16.3 h, an inhibition at 10 µM [11] of 14 ± 1.17% and a CC50 ([12]; THP-1 macrophages, Table 1, read-out: Toxicity CC50 ± SD or NOAEL) greater than 100 µM. The IC50 ([12]; Table 4b, read-out: Cytotoxicity THP-1 (IC50)) was greater than 100 µM, the CC50 [13] was greater than 100 µM and the “% cell growth A549” value [14] was 132.80 ± 8.98%.
